Reference: patent publication US10457691B2, “Macrocyclic kinase inhibitors and uses thereof” (Dana-Farber Cancer Institute, Inc., priority 2014, dated 2019)

How the values were obtained:
Format in all cases: biochemical
Settings in all cases: read-out: Activity of the protein kinase when treated with compound I-1 (% control)
BRK = BRK (Homo sapiens, UniProt Q13882); assay: Protein kinase assay ([γ-32P] ATP), BRK
Experimental: (§1) In another set of experiments, the activities of the compounds described herein against various protein kinases were determined according to the methods reported in Hastie et al., Nature Protocols, 2006, 1, 968-971.
(§2) Enzyme dilution buffer. This buffer consisted of 50 mM Tris-HCl, pH 7.5, 0.1 mM EGTA, 1 mg ml^−1 bovine serum albumin and 0.1% (vol/vol) 2-mercaptoethanol.
(§3) 10× concentrated assay buffer. An assay buffer of 500 mM Tris-HCl, pH 7.5, 1 mM EGTA, and 100 mM magnesium acetate was used for assay of a wide variety of protein kinases. In some experiments, other cofactors were included (e.g., calcium ions and calmodulin were included for assay of calcium-calmodulindependent protein kinases).
(§4) 1 mM [γ-^32P] ATP. The specific activity of the [γ-^32P] ATP solution was 1×10^5 to 1×10^6 c.p.m. per nmol depending on what was needed to produce an optimal signal/noise ratio. […] To measure the concentration of ATP, a sample of such a stock solution was diluted to 20 μM, and the absorbance of the diluted sample was measured at 259 nm. The absorbance of a 20-μM stock solution of ATP at 259 nm was about 0.31. […] ATP to produce a radioactivity of 1×10^5 to 1×10^6 c.p.m. per nmol. […]
(§5) 13) Measure radioactivity in the samples by Cerenkov counting (e.g., without liquid scintillation fluid) in a liquid scintillation counter using a “^32P program”. […]

MNK1 = MNK1 (Homo sapiens, UniProt Q9BUB5); assay: Protein kinase assay ([γ-32P] ATP), MNK1
Experimental: as §1, §2, §3, §4, §5

TSSK1 = TSSK1 (Homo sapiens, UniProt Q9BXA7); assay: Protein kinase assay ([γ-32P] ATP), TSSK1
Experimental: as §1, §2, §3, §4, §5

IRR = IRR (Homo sapiens, UniProt P14616); assay: Protein kinase assay ([γ-32P] ATP), IRR
Experimental: as §1, §2, §3, §4, §5

ASK1 = ASK1 (Homo sapiens, UniProt Q99683); assay: Protein kinase assay ([γ-32P] ATP), ASK1
Experimental: as §1, §2, §3, §4, §5

S6K1 = S6K1 (Homo sapiens, UniProt P23443); assay: Protein kinase assay ([γ-32P] ATP), S6K1
Experimental: as §1, §2, §3, §4, §5

BRSK2 = BRSK2 (Homo sapiens, UniProt Q8IWQ3); assay: Protein kinase assay ([γ-32P] ATP), BRSK2
Experimental: as §1, §2, §3, §4, §5

PKBb = PKBb (Homo sapiens, UniProt P31751); assay: Protein kinase assay ([γ-32P] ATP), PKBb
Experimental: as §1, §2, §3, §4, §5

MINK1 = MINK1 (Homo sapiens, UniProt Q8N4C8); assay: Protein kinase assay ([γ-32P] ATP), MINK1
Experimental: as §1, §2, §3, §4, §5

ERK1 = ERK1 (Homo sapiens, UniProt P27361); assay: Protein kinase assay ([γ-32P] ATP), ERK1
Experimental: as §1, §2, §3, §4, §5

SGK1 = SGK1 (Homo sapiens, UniProt O00141); assay: Protein kinase assay ([γ-32P] ATP), SGK1
Experimental: as §1, §2, §3, §4, §5

SmMLCK = SmMLCK (Homo sapiens, UniProt Q15746); assay: Protein kinase assay ([γ-32P] ATP), SmMLCK
Experimental: as §1, §2, §3, §4, §5

PLK1 = PLK1 (Homo sapiens, UniProt P53350); assay: Protein kinase assay ([γ-32P] ATP), PLK1
Experimental: as §1, §2, §3, §4, §5

YES1 = YES1 (Homo sapiens, UniProt P07947); assay: Protein kinase assay ([γ-32P] ATP), YES1
Experimental: as §1, §2, §3, §4, §5

PIM3 = PIM3 (Homo sapiens, UniProt Q86V86); assay: Protein kinase assay ([γ-32P] ATP), PIM3
Experimental: as §1, §2, §3, §4, §5

JNK2 = JNK2 (Homo sapiens, UniProt P45984); assay: Protein kinase assay ([γ-32P] ATP), JNK2
Experimental: as §1, §2, §3, §4, §5

PKCγ = PKCγ (Homo sapiens, UniProt P05129); assay: Protein kinase assay ([γ-32P] ATP), PKCγ
Experimental: as §1, §2, §3, §4, §5

[1] = 0.1 μM of compound I-1, DMSO control = 100%
[2] = 1 μM of compound I-1, DMSO control = 100%

Chain of IRR (P14616 27-1297): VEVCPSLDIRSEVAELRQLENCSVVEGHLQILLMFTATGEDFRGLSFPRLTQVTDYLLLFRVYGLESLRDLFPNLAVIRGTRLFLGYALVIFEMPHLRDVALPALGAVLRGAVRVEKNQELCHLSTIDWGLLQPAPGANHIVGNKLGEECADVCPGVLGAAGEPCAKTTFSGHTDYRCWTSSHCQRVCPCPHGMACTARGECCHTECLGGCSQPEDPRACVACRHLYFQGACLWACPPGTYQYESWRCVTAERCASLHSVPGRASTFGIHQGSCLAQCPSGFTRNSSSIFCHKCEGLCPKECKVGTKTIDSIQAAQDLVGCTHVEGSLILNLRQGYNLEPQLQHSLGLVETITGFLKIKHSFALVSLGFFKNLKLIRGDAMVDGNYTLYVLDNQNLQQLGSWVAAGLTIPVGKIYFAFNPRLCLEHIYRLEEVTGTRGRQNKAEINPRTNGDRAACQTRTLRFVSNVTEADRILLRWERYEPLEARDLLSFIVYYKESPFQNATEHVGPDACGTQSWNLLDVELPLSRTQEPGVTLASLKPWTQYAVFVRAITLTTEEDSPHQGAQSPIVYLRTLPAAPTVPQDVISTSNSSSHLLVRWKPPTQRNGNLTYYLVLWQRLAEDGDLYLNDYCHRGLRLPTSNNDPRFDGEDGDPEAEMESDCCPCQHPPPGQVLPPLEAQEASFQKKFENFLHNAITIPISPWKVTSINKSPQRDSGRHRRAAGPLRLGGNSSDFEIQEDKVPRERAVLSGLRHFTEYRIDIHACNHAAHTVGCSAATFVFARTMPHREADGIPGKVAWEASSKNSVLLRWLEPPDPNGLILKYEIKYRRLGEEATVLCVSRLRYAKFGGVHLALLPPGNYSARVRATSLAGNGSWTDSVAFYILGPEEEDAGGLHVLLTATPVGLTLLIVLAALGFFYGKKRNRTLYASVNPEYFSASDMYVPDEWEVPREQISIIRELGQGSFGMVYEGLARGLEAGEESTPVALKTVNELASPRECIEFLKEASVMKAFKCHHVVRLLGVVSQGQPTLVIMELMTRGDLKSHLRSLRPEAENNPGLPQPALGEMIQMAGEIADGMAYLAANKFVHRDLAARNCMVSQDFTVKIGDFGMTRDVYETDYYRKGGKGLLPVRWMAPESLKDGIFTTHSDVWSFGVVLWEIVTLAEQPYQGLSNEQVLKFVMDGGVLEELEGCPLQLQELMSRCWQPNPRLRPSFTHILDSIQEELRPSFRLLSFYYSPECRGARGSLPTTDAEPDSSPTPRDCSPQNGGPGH
Chain of PLK1 (P53350 whole entry, species assumed): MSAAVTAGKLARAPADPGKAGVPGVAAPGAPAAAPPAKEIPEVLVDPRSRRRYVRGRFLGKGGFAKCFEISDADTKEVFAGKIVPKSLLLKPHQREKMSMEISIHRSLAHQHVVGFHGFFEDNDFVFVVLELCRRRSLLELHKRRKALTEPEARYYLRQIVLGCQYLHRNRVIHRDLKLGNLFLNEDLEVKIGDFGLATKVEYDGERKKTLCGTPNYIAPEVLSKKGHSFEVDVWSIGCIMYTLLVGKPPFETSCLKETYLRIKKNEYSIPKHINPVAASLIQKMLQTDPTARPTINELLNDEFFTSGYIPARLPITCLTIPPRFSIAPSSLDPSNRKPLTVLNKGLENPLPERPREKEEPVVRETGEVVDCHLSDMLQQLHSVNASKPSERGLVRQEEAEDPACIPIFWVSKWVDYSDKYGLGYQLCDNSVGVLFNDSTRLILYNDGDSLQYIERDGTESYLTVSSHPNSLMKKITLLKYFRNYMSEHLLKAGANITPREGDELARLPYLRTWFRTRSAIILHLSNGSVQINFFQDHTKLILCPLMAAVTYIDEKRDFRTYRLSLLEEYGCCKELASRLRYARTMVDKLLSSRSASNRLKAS
Chain of TSSK1 (Q9BXA7 whole entry, species assumed): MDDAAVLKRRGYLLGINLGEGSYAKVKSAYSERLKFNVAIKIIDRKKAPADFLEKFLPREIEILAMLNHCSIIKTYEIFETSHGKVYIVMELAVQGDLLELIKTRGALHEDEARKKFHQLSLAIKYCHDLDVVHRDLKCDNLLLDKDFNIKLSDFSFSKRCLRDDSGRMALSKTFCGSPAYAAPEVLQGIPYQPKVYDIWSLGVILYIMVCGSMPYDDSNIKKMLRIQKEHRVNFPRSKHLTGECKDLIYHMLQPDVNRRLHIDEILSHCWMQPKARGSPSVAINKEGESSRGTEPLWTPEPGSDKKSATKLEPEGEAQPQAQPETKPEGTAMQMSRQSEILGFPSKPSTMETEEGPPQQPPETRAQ
Chain of MNK1 (Q9BUB5 whole entry): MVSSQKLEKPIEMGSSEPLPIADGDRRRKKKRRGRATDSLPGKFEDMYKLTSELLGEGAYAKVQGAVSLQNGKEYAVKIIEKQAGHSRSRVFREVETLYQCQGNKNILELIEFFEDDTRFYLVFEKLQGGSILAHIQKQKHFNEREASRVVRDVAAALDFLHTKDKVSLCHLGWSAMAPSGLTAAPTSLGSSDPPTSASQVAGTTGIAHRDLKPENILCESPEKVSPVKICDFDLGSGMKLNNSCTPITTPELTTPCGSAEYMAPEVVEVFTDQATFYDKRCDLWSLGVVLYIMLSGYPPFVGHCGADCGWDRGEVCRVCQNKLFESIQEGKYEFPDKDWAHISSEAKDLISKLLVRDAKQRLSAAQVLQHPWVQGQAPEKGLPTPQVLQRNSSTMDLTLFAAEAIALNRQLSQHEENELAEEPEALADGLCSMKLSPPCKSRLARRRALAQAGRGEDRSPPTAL
Chain of SGK1 (O00141 whole entry, species assumed): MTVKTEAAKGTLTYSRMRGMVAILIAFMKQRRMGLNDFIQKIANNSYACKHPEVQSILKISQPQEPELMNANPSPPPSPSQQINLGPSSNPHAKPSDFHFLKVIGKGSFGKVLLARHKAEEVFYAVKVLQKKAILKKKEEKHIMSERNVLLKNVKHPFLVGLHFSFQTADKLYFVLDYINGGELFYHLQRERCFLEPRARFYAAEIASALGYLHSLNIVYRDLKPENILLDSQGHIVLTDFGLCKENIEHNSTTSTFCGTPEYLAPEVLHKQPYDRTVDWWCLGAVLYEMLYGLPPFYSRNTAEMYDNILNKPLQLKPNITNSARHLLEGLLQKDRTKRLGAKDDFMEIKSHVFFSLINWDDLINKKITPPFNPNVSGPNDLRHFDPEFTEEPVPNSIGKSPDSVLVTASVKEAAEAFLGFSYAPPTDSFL
Chain of JNK2 (P45984 whole entry): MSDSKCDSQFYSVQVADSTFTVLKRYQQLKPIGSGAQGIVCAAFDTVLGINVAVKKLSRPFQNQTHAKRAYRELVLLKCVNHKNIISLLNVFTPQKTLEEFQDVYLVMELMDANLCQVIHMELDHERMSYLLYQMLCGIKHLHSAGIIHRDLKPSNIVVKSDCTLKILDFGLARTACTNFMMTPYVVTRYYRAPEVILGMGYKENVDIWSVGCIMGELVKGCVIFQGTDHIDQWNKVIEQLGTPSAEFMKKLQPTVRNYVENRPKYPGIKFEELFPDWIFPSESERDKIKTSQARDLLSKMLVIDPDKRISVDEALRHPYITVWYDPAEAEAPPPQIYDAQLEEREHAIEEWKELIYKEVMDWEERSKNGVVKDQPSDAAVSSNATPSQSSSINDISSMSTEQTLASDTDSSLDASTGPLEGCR
Chain of BRK (Q13882 whole entry): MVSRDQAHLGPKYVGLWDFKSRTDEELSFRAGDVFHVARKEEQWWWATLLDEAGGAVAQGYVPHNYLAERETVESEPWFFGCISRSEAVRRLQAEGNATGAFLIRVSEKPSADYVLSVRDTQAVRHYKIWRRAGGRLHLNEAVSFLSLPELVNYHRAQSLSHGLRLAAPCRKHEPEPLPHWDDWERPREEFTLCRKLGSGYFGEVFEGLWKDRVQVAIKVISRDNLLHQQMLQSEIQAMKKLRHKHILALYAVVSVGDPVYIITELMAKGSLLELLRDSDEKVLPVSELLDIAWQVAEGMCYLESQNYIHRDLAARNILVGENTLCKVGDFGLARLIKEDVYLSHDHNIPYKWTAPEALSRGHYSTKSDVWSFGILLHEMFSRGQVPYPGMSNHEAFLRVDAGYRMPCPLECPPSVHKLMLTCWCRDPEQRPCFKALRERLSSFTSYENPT

Cc1cccc(C)c1NC(=O)N1C/C=C\COc2cccc(c2)Nc2cc1ncn2 [Compound I-1]
remaining activity at 0.1 µM (BRK; [1]): 36%
remaining activity at 1 µM (BRK; [2]): 12%
remaining activity at 0.1 µM (MNK1; [1]): 105%
remaining activity at 1 µM (MNK1; [2]): 90%
remaining activity at 0.1 µM (TSSK1; [1]): 83%
remaining activity at 1 µM (TSSK1; [2]): 85%
remaining activity at 0.1 µM (IRR; [1]): 98%
remaining activity at 1 µM (IRR; [2]): 83%
remaining activity at 0.1 µM (ASK1; [1]): 117%
remaining activity at 1 µM (ASK1; [2]): 96%
remaining activity at 0.1 µM (S6K1; [1]): 105%
remaining activity at 1 µM (S6K1; [2]): 83%
remaining activity at 0.1 µM (BRSK2; [1]): 110%
remaining activity at 1 µM (BRSK2; [2]): 78%
remaining activity at 0.1 µM (PKBb; [1]): 102%
remaining activity at 1 µM (PKBb; [2]): 89%
remaining activity at 0.1 µM (MINK1; [1]): 46%
remaining activity at 1 µM (MINK1; [2]): 9%
remaining activity at 0.1 µM (ERK1; [1]): 97%
remaining activity at 1 µM (ERK1; [2]): 87%
remaining activity at 0.1 µM (SGK1; [1]): 96%
remaining activity at 1 µM (SGK1; [2]): 100%
remaining activity at 0.1 µM (SmMLCK; [1]): 91%
remaining activity at 1 µM (SmMLCK; [2]): 85%
remaining activity at 0.1 µM (PLK1; [1]): 104%
remaining activity at 1 µM (PLK1; [2]): 101%
remaining activity at 0.1 µM (YES1; [1]): 10%
remaining activity at 1 µM (YES1; [2]): 15%
remaining activity at 0.1 µM (PIM3; [1]): 93%
remaining activity at 1 µM (PIM3; [2]): 84%
remaining activity at 0.1 µM (JNK2; [1]): 81%
remaining activity at 1 µM (JNK2; [2]): 34%
remaining activity at 0.1 µM (PKCγ; [1]): 98%
remaining activity at 1 µM (PKCγ; [2]): 92%
